Test results taken from US11564919B1, “Small molecule inhibitors for treatment of alpha viruses” (priority 2021, dated 2023).
Entries after “also recorded” stand apart in the source; their conditions may differ.

Legend:
[1] = system: CHIKV 181/25; format: cell-based, Chikungunya virus
[2] = system: CHIKV-GFP reporter virus; test: microbe, parasite or virus in culture; format: cell-based, Chikungunya virus (CHIKV) strain 181/25; settings: for IC50: Chikungunya virus, HeLa, read-out: IC50 against CHIKV-GFP reporter virus
[3] = system: VEEV TC-83; format: cell-based, Venezuelan Equine Encephalitis Virus
[4] = system: Zika virus (ZIKV); format: cell-based
[5] = system: RVFV MP12; format: cell-based, Rift Valley fever virus
[6] = system: CHIKV 181/25; format: cell-based, Chikungunya virus; remark: listed apart in the source
[7] = system: HeLa cells; settings: 30 μM, 48 hours
[8] = system: A549 cells; settings: 30 μM, 48 hours

Row | Compound | CHIKV 181/25 viral titer by time of compound addition [1] | CHIKV-GFP fluorescence, relative percent infection [2] | IC50 [2] | VEEV TC-83 infection [3] | ZIKV viral titer [4] | viral titer of RVFV [5] | percentage of VEEV TC-83 infected cells [3] | infection of CHIKV 181/25 [6] | reduction of HeLa cell viability [7] | reduction of A549 cell viability [8]
1 | O=C(/C=C/c1ccc2c(c1)OCO2)N1CCN(Cc2nc(-c3ccco3)cs2)CC1 [Compound I, (2E)-3-(2H-1,3-benzodioxol-5-yl)-1-(4-{[4-(furan-2-yl)-1,3-thiazol-2-yl]methyl}piperazin-1-yl)prop-2-en-1-one] | relatively similar reduction of viral titer across all timepoints | more effective in A549 cells | 10900 nM | the only compound reducing VEEV TC-83 infection | no obvious reduction | minimal effectiveness | – | – | – | –
2 | Sc1nnc2c(n1)[nH]c1ccccc12 [Compound III, 5H-[1,2,4]Triazino[5,6-b]indole-3-thiol] | relatively similar reduction of viral titer across all timepoints | – | 2820 nM | – | some minimal effect | – | reduced the percentage of VEEV TC-83 infected cells | didn't reduce infection | – | –
3 | Cn1c(=N)sc2c3ccccc3ccc21 [Compound IV, 3-methyl-2H,b3H-naphtho[2,1-d][1,3]thiazol-2-imine] | strongest reduction with pre-treatment, with lessened efficacy at each consecutive timepoint; also recorded: consecutively reduced levels of efficacy at later timepoints | greater inhibition of virus infection in HeLa cells | 2590 nM | – | strong reduction | significantly reduced titer | reduced the percentage of VEEV TC-83 infected cells | – | 23.8% | 29%
